Reference: PMC13198257, “An aerosolized dual-action autotaxin inhibitor-PPARγ agonist for the treatment of pulmonary fibrosis” (Cell Reports Medicine, 2026)

Test system: lung gene expression
Experiment: RNA sequencing of lung tissue (BLM/EL244 vs BLM)
Format: in vivo, mouse
Conditions: BLM/EL244 vs BLM, lung tissue
Method: RNA quality was assessed using an Agilent TapeStation 4150 with the High Sensitivity […] ScreenTape (Agilent), according to the manufacturer’s protocols. For library preparation, the QuantSeq 3’mRNA-Seq Library Prep Kit (Lexogen) was used according to manufacturer’s instructions. Briefly, 500 ng of RNA from each sample was used for first-strand synthesis, followed by RNA template removal, and second-strand synthesis initiated by random primers. In-line barcodes were introduced at this step, and this was followed by magnetic bead-based purification. The resulting libraries were amplified for 15 cycles and re-purified, with quantity and quality assessed on a Qubit 4 Fluorometer with the Invitrogen Qubit dsDNA HS Assay and an Agilent Tapestation 4150 with the High Sensitivity D1000 assay kit, respectively. The quantified libraries were pooled equimolarly; 50ng of total library mix was used for Adapter Conversion PCR Amplification using the Universal Library Conversion Kit (App-A), Version: V1.0 (MGI Tech Co., Ltd.), according to the manufacturer’s instructions.
The quantity and quality of the purified adapter conversion PCR (AC-PCR) product were evaluated on a Qubit 4 Fluorometer with the Invitrogen Qubit dsDNA HS Assay and on an Agilent Tapestation 4150 with the High Sensitivity D1000 assay kit, respectively. This was followed by DNA denaturation, Single-Strand Circularisation, Enzymatic Digestion, Enzymatic Digestion Product Cleanup and Quality Control steps on 1 pmol of AC-PCR product, according to the Universal Library Conversion Kit (App-A) User Manual (Version: A3).
Finally, 60 fmol of ssCirDNA were used for DNB preparation and sequencing on a DNBSEQ-G400 platform at the BSRC Alexander Fleming Genomics Facility, using a G400 App-A FCS SE100 High-throughput Sequencing Set (MGI Tech Co., Ltd.), according to the manufacturer’s instructions.
Alignment of the FASTQ files was performed against the mouse genome build mm10 using a custom Bash script.[143] Read counting on the 3′ UTRs and differential expression analysis were conducted using the metaseqR2 bioconductor package.[144] Genes corresponding to the following biotypes were excluded: polymorphic_pseudogene, processed_transcript, pseudogene, IG_V_pseudogene, misc_RNA, IG_C_gene, IG_J_gene, IG_D_gene, IG_LV_gene, TR_V_gene, TR_V_pseudogene, TEC, and processed_pseudogene. Gene counts were normalized with DESEQ[145] through metaseqR2. Genes with more than 10 counts in at least 50% of the samples were kept for further processing. For differential expression analysis, the PANDORA algorithm[146] was used to estimate a meta p-value integrating the results from the DESEQ, DESEQ2,[147] edgeR,[148] limma,[149] NBPSeq,[150] and NOISeq[151] algorithms. All additional parameters were set to default values.
Pathway enrichment analysis was performed for the Gene Ontology Biological process (BP) and Molecular Function (MF) terms through GeneCodis 4.[152] The volcano plots, scatterplots, Venn diagrams, and dot plots were generated using the ggplot2 Bioconductor package.

O=C1NC(=O)C(Cc2ccc(OCCC3CCN(C(=O)OCc4cc(Cl)cc(Cl)c4)CC3)cc2)S1 (stereo not shown) [EL244, 3,5-dichlorobenzyl 4-(2-(4-((2,4-dioxothiazolidin-5-yl)methyl)phenoxy)ethyl)piperidine-1-carboxylate]
1810020O05Rik log2 nFC: 1.58 | 1810020O05Rik nFC: 3.00 | 2410004I01Rik log2 nFC: 1.80 | 2410004I01Rik nFC: 3.47 | 9130230L23Rik log2 nFC: 1.34 | 9130230L23Rik nFC: 2.53 | 9330159F19Rik log2 nFC: 1.78 | 9330159F19Rik nFC: 3.43 | 9530026P05Rik log2 nFC: 3.17 | 9530026P05Rik nFC: 9.00 | A3galt2 log2 nFC: 2.32 | A3galt2 nFC: 5.00 | Acaa1b log2 nFC: 1.43 | Acaa1b nFC: 2.69 | Acot1 log2 nFC: 1.08 | Acot1 nFC: 2.11 | Acoxl log2 nFC: 1.23 | Acoxl nFC: 2.35 | Actc1 log2 nFC: 1.28 | Actc1 nFC: 2.42 | Adam3 log2 nFC: 1.67 | Adam3 nFC: 3.18 | Alas2 log2 nFC: 1.58 | Alas2 nFC: 2.99 | Ankrd63 log2 nFC: 1.34 | Ankrd63 nFC: 2.54 | Aqp9 log2 nFC: 1.66 | Aqp9 nFC: 3.15 | Arhgap28 log2 nFC: 1.14 | Arhgap28 nFC: 2.21 | Arl4d log2 nFC: 1.15 | Arl4d nFC: 2.23 | Arrdc2 log2 nFC: 1.24 | Arrdc2 nFC: 2.36 | Asgr1 log2 nFC: 1.80 | Asgr1 nFC: 3.49 | Baiap3 log2 nFC: 1.24 | Baiap3 nFC: 2.36 | Bbof1 log2 nFC: 1.11 | Bbof1 nFC: 2.15 | Bex2 log2 nFC: 1.46 | Bex2 nFC: 2.76 | Bpifa1 log2 nFC: 1.12 | Bpifa1 nFC: 2.18 | C130080G10Rik log2 nFC: 3.58 | C130080G10Rik nFC: 12.00 | Car3 log2 nFC: 1.57 | Car3 nFC: 2.96 | Casq2 log2 nFC: 2.36 | Casq2 nFC: 5.15 | Cbs log2 nFC: 1.38 | Cbs nFC: 2.61 | Ccdc81 log2 nFC: 1.15 | Ccdc81 nFC: 2.23 | Cd300lg log2 nFC: 1.18 | Cd300lg nFC: 2.27 | Chia1 log2 nFC: 1.16 | Chia1 nFC: 2.24 | Chrdl1 log2 nFC: 1.39 | Chrdl1 nFC: 2.62 | Cidec log2 nFC: 1.57 | Cidec nFC: 2.96 | Ckm log2 nFC: 2.32 | Ckm nFC: 5.00 | Ckmt2 log2 nFC: 2.73 | Ckmt2 nFC: 6.63 | Colq log2 nFC: 1.81 | Colq nFC: 3.52 | Cox6a2 log2 nFC: 1.42 | Cox6a2 nFC: 2.68 | Crtc2 log2 nFC: 1.47 | Crtc2 nFC: 2.76 | Csf3r log2 nFC: 1.69 | Csf3r nFC: 3.22 | Csrp3 log2 nFC: 2.07 | Csrp3 nFC: 4.19 | Cst8 log2 nFC: 1.41 | Cst8 nFC: 2.66 | Cxcl5 log2 nFC: 1.80 | Cxcl5 nFC: 3.49 | Cxcr2 log2 nFC: 1.19 | Cxcr2 nFC: 2.28 | Cyp2a5 log2 nFC: 1.66 | Cyp2a5 nFC: 3.15 | Cyp4b1 log2 nFC: 1.18 | Cyp4b1 nFC: 2.26 | Cytl1 log2 nFC: 1.67 | Cytl1 nFC: 3.18 | D630024D03Rik log2 nFC: 1.60 | D630024D03Rik nFC: 3.03 | Dpysl5 log2 nFC: 1.90 | Dpysl5 nFC: 3.73 | Ear1 log2 nFC: 1.11 | Ear1 nFC: 2.16 | Eml5 log2 nFC: 1.41 | Eml5 nFC: 2.65 | Esm1 log2 nFC: 1.28 | Esm1 nFC: 2.43 | Fabp12 log2 nFC: 1.43 | Fabp12 nFC: 2.69 | Faim2 log2 nFC: 2.03 | Faim2 nFC: 4.10 | Fam71f2 log2 nFC: 1.96 | Fam71f2 nFC: 3.88 | Fosb log2 nFC: 2.38 | Fosb nFC: 5.20 | Ggt1 log2 nFC: 1.91 | Ggt1 nFC: 3.77 | Gm867 log2 nFC: 2.18 | Gm867 nFC: 4.53 | Gm4956 log2 nFC: 1.08 | Gm4956 nFC: 2.12 | Gm9780 log2 nFC: 2.06 | Gm9780 nFC: 4.18 | Gm14964 log2 nFC: 1.87 | Gm14964 nFC: 3.65 | Gm20186 log2 nFC: 1.31 | Gm20186 nFC: 2.48 | Gm42722 log2 nFC: 1.79 | Gm42722 nFC: 3.46 | Gm49353 log2 nFC: 2.21 | Gm49353 nFC: 4.62 | Gnmt log2 nFC: 1.14 | Gnmt nFC: 2.20 | Gpat3 log2 nFC: 1.34 | Gpat3 nFC: 2.54 | Gria1 log2 nFC: 1.61 | Gria1 nFC: 3.05 | Gsta3 log2 nFC: 1.10 | Gsta3 nFC: 2.15 | Gzma log2 nFC: 1.70 | Gzma nFC: 3.26 | Hba-a1 log2 nFC: 1.21 | Hba-a1 nFC: 2.32 | Hba-a2 log2 nFC: 1.14 | Hba-a2 nFC: 2.21 | Hbb-bs log2 nFC: 1.10 | Hbb-bs nFC: 2.15 | Hbb-bt log2 nFC: 1.09 | Hbb-bt nFC: 2.13 | Hhatl log2 nFC: 2.05 | Hhatl nFC: 4.14 | Hpgd log2 nFC: 1.63 | Hpgd nFC: 3.10 | Igfbp3 log2 nFC: 1.75 | Igfbp3 nFC: 3.37 | Igfbp6 log2 nFC: 1.68 | Igfbp6 nFC: 3.21 | Inmt log2 nFC: 1.34 | Inmt nFC: 2.54 | Itga2b log2 nFC: 1.10 | Itga2b nFC: 2.15 | Kcne2 log2 nFC: 1.32 | Kcne2 nFC: 2.50 | Klf15 log2 nFC: 1.42 | Klf15 nFC: 2.67 | Klrc1 log2 nFC: 1.38 | Klrc1 nFC: 2.61 | Krt79 log2 nFC: 1.75 | Krt79 nFC: 3.36 | Ldb3 log2 nFC: 1.52 | Ldb3 nFC: 2.86 | Lrat log2 nFC: 1.15 | Lrat nFC: 2.22 | Mb log2 nFC: 2.27 | Mb nFC: 4.81 | Mir6979 log2 nFC: 1.18 | Mir6979 nFC: 2.26 | Mmp9 log2 nFC: 1.20 | Mmp9 nFC: 2.30 | Mpp3 log2 nFC: 1.65 | Mpp3 nFC: 3.14 | Ms4a4d log2 nFC: 1.15 | Ms4a4d nFC: 2.21 | Mybpc3 log2 nFC: 2.06 | Mybpc3 nFC: 4.18 | Mybphl log2 nFC: 2.33 | Mybphl nFC: 5.04 | Myh6 log2 nFC: 2.62 | Myh6 nFC: 6.14 | Myh7 log2 nFC: 2.22 | Myh7 nFC: 4.68 | Myl4 log2 nFC: 1.94 | Myl4 nFC: 3.85 | Myl7 log2 nFC: 1.90 | Myl7 nFC: 3.73 | Mylk3 log2 nFC: 2.03 | Mylk3 nFC: 4.08 | Myom2 log2 nFC: 1.87 | Myom2 nFC: 3.67 | Ngp log2 nFC: 2.72 | Ngp nFC: 6.57 | Nhlrc1 log2 nFC: 1.34 | Nhlrc1 nFC: 2.53 | Npr3 log2 nFC: 1.53 | Npr3 nFC: 2.88 | Nr4a3 log2 nFC: 1.63 | Nr4a3 nFC: 3.09 | Nrn1 log2 nFC: 1.84 | Nrn1 nFC: 3.59 | Numb log2 nFC: 1.49 | Numb nFC: 2.80 | Pdk4 log2 nFC: 1.64 | Pdk4 nFC: 3.11 | Phf24 log2 nFC: 1.57 | Phf24 nFC: 2.97 | Pln log2 nFC: 2.30 | Pln nFC: 4.92 | Pmvk log2 nFC: 1.09 | Pmvk nFC: 2.13 | Ppbp log2 nFC: 1.09 | Ppbp nFC: 2.13 | Ppp4r4 log2 nFC: 1.26 | Ppp4r4 nFC: 2.40 | Pram1 log2 nFC: 1.64 | Pram1 nFC: 3.12 | Prf1 log2 nFC: 1.34 | Prf1 nFC: 2.53 | Prmt8 log2 nFC: 1.27 | Prmt8 nFC: 2.41 | Pwwp3b log2 nFC: 1.22 | Pwwp3b nFC: 2.33 | Rab44 log2 nFC: 1.61 | Rab44 nFC: 3.05 | Rassf10 log2 nFC: 1.19 | Rassf10 nFC: 2.28 | Rbfox3 log2 nFC: 1.26 | Rbfox3 nFC: 2.40 | Rbm24 log2 nFC: 1.20
